Measurements published in patent US8338414B2, “Immunosuppressive agent and anti-tumor agent comprising heterocyclic compound as active ingredient” (Zenyaku Kogyo KabushikiKaisha, priority 2005, dated 2012).
Where two headings read alike, the source gives them in different places.

What was measured:
Daudi cells = assay: Proliferation inhibitory activity on hematologic neoplasm cells, Daudi; format: cell-based; conditions: 3 days, Alamar Blue
Protocol: (§1) Daudi cells (5×10^5 cells/mL), Jurkat cells (5×10^5 cells/mL), THP-1 cells (5×10^5 cells/mL), U 937 cells (5×10^5 cells/mL), and HL 60 cells (5×10^5 cells/mL) suspended in RPMI 1640 medium (containing 10% fetal bovine serum, 10 mM HEPES, 1 mM pyruvic acid, 4.5 g/L glucose, 100 units/mL penicillin, and 0.1 mg/mL streptomycin) were seeded in 96 well plates at a capacity of 0.135 mL per well. Serial dilutions of test substances were added to respective wells at 15 μL/well, and incubated under conditions of carbon dioxide 5% at 37° C. for 3 days. Thereafter, Alamar Blue solution was added at 50 μL, and after incubation for one day, the fluorescence intensity at 590 nm using an excitation wavelength of 530 nm was determined by Cytoflour 4000 (Applied Biosystems).

[1] = test system: allogeneic mixed lymphocyte reaction; assay: Allogeneic mixed lymphocyte reaction; format: cell-based, mouse; conditions: C57BL/6N spleen stimulator cells, BALB/c lymph node responder cells, 86 hours, BrdU
Protocol: Spleen cells prepared from C57BL/6N female mice (8-10 weeks old, purchased from Charles River Laboratories Japan Inc.) and peripheral lymph node mononuclear cells prepared from BALB/c female mice (8-10 weeks old, purchased from Charles River Laboratories Japan Inc.) were used as stimulator cells and responder cells, respectively. The respective cells were suspended in RPMI 1640 medium (containing 10% fetal bovine serum, 100 units/mL penicillin, and 0.1 mg/mL streptomycin) (with 2×10^6 cells/mL).

U 937 cells = assay: Proliferation inhibitory activity on hematologic neoplasm cells, U937; format: cell-based; conditions: 3 days, Alamar Blue
Protocol: as §1

[2] = test system: human peripheral blood mononuclear cells; assay: Proliferation inhibition assay for human peripheral blood mononuclear cells; format: cell-based; conditions: PBMC, anti-CD3 and anti-CD28 antibody, 3 days, Alamar Blue
Protocol: 4 mL of blood collected from healthy subjects was placed on 3 mL of MonoPoly Resolving Medium, and after centrifugation, the mononuclear cell (PBMC) fraction was collected. After washing with saline, PBMC (1×10^5 cells/mL) was suspended in RPMI 1640 medium (containing 10% fetal bovine serum, 10 mM HEPES, 1 mM pyruvic acid, and 4.5 g/L glucose). Next, after having added an anti-CD28 antibody (1 μg/mL) to the suspension, they were seeded on an anti-human CD3 T cell activation plate (BD Bioscience) at a capacity of 0.135 mL per well. Then, serial dilutions of test substances were added to respective wells, and incubated under conditions of carbon dioxide 5% at a temperature 37° C. After 3 days, Alamar Blue solution was added at 50 μL per well, and after incubation for one day, a fluorescence intensity at 590 nm using an excitation wavelength of 530 nm was determined by Cytoflour 4000 (Applied Biosystems).

Jurkat cells = assay: Proliferation inhibitory activity on hematologic neoplasm cells, Jurkat; format: cell-based; conditions: 3 days, Alamar Blue
Protocol: as §1

HL 60 cells = assay: Proliferation inhibitory activity on hematologic neoplasm cells, HL60; format: cell-based; conditions: 3 days, Alamar Blue
Protocol: as §1

mouse spleen cells = assay: Proliferation inhibition assay for mouse spleen cells; format: cell-based; conditions: 72 h, 3 days, Alamar Blue
Protocol: Spleen cells (2×10^6 cells/mL) prepared from C57BL/6N female mice (8 weeks old, purchased from Charles River Laboratories Japan Inc.) were suspended in RPMI 1640 medium (containing 10% fetal bovine serum, 10 mM HEPES, 1 mM pyruvic acid, 4.5 g/L glucose, 100 units/mL penicillin, and 0.1 mg/mL streptomycin), and seeded in wells of a 96 well plate at 0.225 mL per well. Serial dilutions of test substances were added to respective wells, and then concanavalin A (Con A, 3 μg/mL), lipopolysaccharide (LPS, 100 μg/mL), or an anti-mouse IgM antibody (100 μg/mL) were added. Thereafter, they were incubated under conditions of carbon dioxide 5% at a temperature 37° C. for 3 days. Next, Alamar Blue solution was added at 50 μL per 150 μL, and after having cultured for one day, the fluorescence intensity at 590 nm using an excitation wavelength of 530 nm was determined by Cytoflour 4000 (Applied Biosystems).

THP-1 cells = assay: Proliferation inhibitory activity on hematologic neoplasm cells, THP-1; format: cell-based; conditions: 3 days, Alamar Blue
Protocol: as §1

[3] = test system: Rabbit synoviocytes HIG-82; assay: Inhibition assay for proliferation of rabbit synoviocyte; format: cell-based; conditions: HIG-82, 3 days, Alamar Blue
Protocol: Rabbit synoviocytes HIG-82 suspended in HAM medium (containing 10% fetal bovine serum, 25 mM HEPES, and 0.1 mg/mL kanamycin) (with 4×10^4 cells/mL) were seeded in wells of a 96 well plate at 0.135 mL per well. Then, 15 μL of each of serial dilutions of test substances was added to a respective well, and incubated under conditions of carbon dioxide 5% at a temperature 37° C. Alamar Blue solution was added at 50 μL per well on day 0 and day 3, and incubated for one day, and thereafter fluorescence intensity at 590 nm using an excitation wavelength of 530 nm was determined by Cytoflour 4000 (Applied Biosystems).

fulminant hepatitis = assay: Fulminant hepatitis model (galactosamine and LPS); format: in vivo, mouse; conditions: BALB/c mice, galactosamine 800 mg/kg and LPS 110 μg/kg i.p.
Protocol: BALB/c male mice (7 weeks old, purchased from Charles River Laboratories Japan Inc.) were used in the experiment. After having orally administered the test substances suspended in 5% HPC, galactosamine (800 mg/kg) and LPS (110 μg/kg) were intraperitoneally administered. Then, survival rates at 72 hours after administration were obtained.

[4] = LPS 100 μg/mL, read-out: Inhibition of LPS response
[5] = concanavalin A 3 μg/mL, read-out: Inhibition of Con A response
[6] = anti-mouse IgM antibody 100 μg/mL, read-out: Inhibition of Anti-IgM antibody response

| IC50 (Daudi cells; Homo sapiens, Daudi, 72 h) [nM] | IC50 ([1]; Mus musculus, Lymphocyte) [nM] | IC50 (U 937 cells; Homo sapiens, U-937, 72 h) [nM] | melting point | IC50 (Jurkat cells; Homo sapiens, Jurkat, 72 h) [µM] | IC50 (HL 60 cells; Homo sapiens, HL-60, 72 h) [nM] | IC50 (THP-1 cells; Homo sapiens, THP-1, 72 h) [nM] | Compound | IC50 ([2]; Homo sapiens, 72 h) [nM] | IC50 (mouse spleen cells; [4]) [µM] | IC50 (mouse spleen cells; [5]) [µM] | IC50 ([3]; Oryctolagus cuniculus, 72 h) [nM] | Survival Rate after 72 Hours (fulminant hepatitis; 100 mg/kg oral) [%] | also measured |
| --- | --- | --- | --- | --- | --- | --- | --- | --- | --- | --- | --- | --- | --- |
| 827 | 670 | > 10000 | 218 to 220 °C (dec.) | 5.02 | > 10000 | 535 | Cc1nc2ccccc2n1-c1nc(N2CCOCC2)nc(N2CCOCC2)n1 [Compound 1, 2-(2-Methylbenzimidazol-1-yl)-4,6-dimorpholino-1,3,5-triazine] | 1780 | 0.1 to 10 | 0.1 to 10 | 4850 |  |  |
|  |  |  |  |  |  |  | Oc1cccc2c1nc(C(F)F)n2-c1nc(N2CCOCC2)cc(N2CCOCC2)n1 [Compound 18, 2-(2-Difluoromethyl-4-hydroxybenzimidazol-1-yl)-4,6-dimorpholinopyrimidine] |  |  |  |  | 80 | Survival Rate after 72 Hours (fulminant hepatitis; 50 mg/kg oral): 50% |
| 160 | 344 | > 10000 | 259 to 260 °C | > 10 | 1790 | 794 | Cc1cccc2c1nc(C(F)F)n2-c1nc(N2CCOCC2)nc(N2CCOCC2)n1 [Compound 10, 2-(2-Difluoromethyl-4-methylbenzimidazol-1-yl)-4,6-dimorpholino-1,3,5-triazine] | 825 | 10 to 100 | 0.1 to 10 | 6510 |  | IC50 (mouse spleen cells; [6]): 0.1 to 10 µM |
| 10.3 | 460 | 604 | > 250 °C | 0.357 | 67.2 | 112 | Oc1ccc2nc(C(F)F)n(-c3nc(N4CCOCC4)nc(N4CCOCC4)n3)c2c1 [Compound 16, 2-(2-Difluoromethyl-6-hydroxybenzimidazol-1-yl)-4,6-dimorpholino-1,3,5-triazine] | 12.3 |  |  | 163 |  |  |
| 65.5 | 227 | 1110 | 214 to 216 °C (dec.) | 1.34 | 396 | 286 | Nc1cccc2c1nc(C(F)F)n2-c1nc(N2CCOCC2)nc(N2CCOCC2)n1 [Compound 14, 2-(4-Amino-2-difluoromethylbenzimidazol-1-yl)-4,6-dimorpholino-1,3,5-triazine] | 92.3 |  |  | 484 |  |  |
|  |  |  |  |  |  |  | 2-(2-Difluoromethyl-4-hydroxybenzimidazol-1-yl)-4-morpholino-6-(2,6-dimethylmorpholino)pyrimidine [Compound 11] |  |  |  |  |  | IC50 (Daudi cells): 2750 nM; IC50 [1]: 1430 nM; IC50 (U 937 cells): > 10000 nM; IC50 [2]: > 10000 nM; IC50 (Jurkat cells): > 10 µM; IC50 (HL 60 cells): > 10000 nM; IC50 (THP-1 cells): > 10000 nM; IC50 [3]: > 10000 nM |
| 379 | 600 | 4140 | 208 to 210 °C (dec.) | 3.27 | 3160 | 135 | OCc1nc2ccccc2n1-c1nc(N2CCOCC2)nc(N2CCOCC2)n1 [Compound 3, 4,6-Dimorpholino-2-(2-hydroxymethylbenzimidazol-1-yl)-1,3,5-triazine] | 1130 | 0.1 to 10 | 0.1 to 10 | 1780 |  |  |

| Compound | IC50 (Daudi cells; Homo sapiens, Daudi, 72 h) [nM] | IC50 ([1]; Mus musculus, Lymphocyte) [nM] | IC50 (U 937 cells; Homo sapiens, U-937, 72 h) [nM] | melting point | IC50 (Jurkat cells; Homo sapiens, Jurkat, 72 h) [µM] | IC50 (HL 60 cells; Homo sapiens, HL-60, 72 h) [nM] | IC50 (THP-1 cells; Homo sapiens, THP-1, 72 h) [nM] | IC50 ([2]; Homo sapiens, 72 h) [nM] | IC50 (mouse spleen cells; [4]) [µM] | IC50 (mouse spleen cells; [5]) [µM] | IC50 ([3]; Oryctolagus cuniculus, 72 h) [nM] | Survival Rate after 72 Hours (fulminant hepatitis; 100 mg/kg oral) [%] | also measured |
| --- | --- | --- | --- | --- | --- | --- | --- | --- | --- | --- | --- | --- | --- |
| Oc1cccc2c1nc(C(F)F)n2-c1nc(N2CCOCC2)nc(N2CCOCC2)n1 [Compound 15, 2-(2-Difluoromethyl-4-hydroxybenzimidazol-1-yl)-4,6-dimorpholino-1,3,5-triazine] | 4.92 | 42.1 | 217 |  | 0.116 | 35.8 | 45.4 | 2.91 |  |  | 85.6 | 0 | Survival Rate after 72 Hours (fulminant hepatitis; 50 mg/kg oral): 17% |
| Nc1nc2ccccc2n1-c1nc(N2CCOCC2)nc(N2CCOCC2)n1 [Compound 6, 2-(2-Aminobenzimidazol-1-yl)-4,6-dimorpholino-1,3,5-triazine] | 803 | 3630 | > 10000 |  | 6.62 | > 10000 | 5540 | 2080 | 0.1 to 10 | 0.1 to 10 | 6350 | 40 | IC50 (mouse spleen cells; [6]): 0.1 to 10 µM |
